# Test: pKa of the conjugate acid of the enolate anion (acid/base titration or UV absorption method)
# Assay type: physicochemical
# Settings: mixed solvent of THF/water=3/2
# Excerpt: The conjugate acid of the enolate anion in the formula (1) has a pKa value of 3.0-6.0. If the pKa value is less than 3.0, ultrahigh contrast images cannot be obtained. On the other hand, if it exceeds 6.0, stability before light exposure and development is degraded. The pKa value defined herein is a value obtained by the acid/base titration method or the UV absorption method in a mixed solvent of THF/water=3/2.
row,pKa,Structure (SMILES)
1,3.8,O=C1/C(=C/O)N=C(c2cc(C(F)(F)F)cc(C(F)(F)F)c2)N1c1ccc(Cl)cc1 [Compound A-6]
2,3.1,CCCCCCCCCCCCNc1ccc(N2C(=O)/C(=C\O)N=C2C(F)(F)F)cc1 [Compound A-18]
3,≤ 2.9,CCCCCCCCCCCCc1cc(CCCCCCCCCCCC)cc(N2N=C/C(=C/O)C2=O)c1 [Compound R-1]
4,6.3,CCCCCCCCCCCCCCCc1cccc(CCCN2C(=O)/C(=C\O)c3ccccc32)c1 [Compound R-2]
